The subject of this test is TEAD-dependent transcription. Briefly: Inhibitor activity against TEAD-dependent transcription in a cell-based reporter assay (MSTO-211H+12XGTIIC luciferase). As to conditions: Homo sapiens; MSTO-211H+12XGTIIC cells, 24 hours incubation, luciferase luminescence normalized to cell viability fluorescence, geometric mean; read-out: MSTO-211H GMean IC50 (uM) Cell Assay Reporter Cell Variant: TEAD. In short, it runs like this: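 MSTO-211H mesothelioma cells stably carrying a 12xGTIIC TEAD-response-element luciferase reporter, treated with serial compound dilutions for 24 h at 37 °C. Luminescence normalized to CellTiter-Fluor viability signal; % inhibition versus DMSO and 20 μM K-975 controls, IC50 by nonlinear regression.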

Bounds are passed on as bounds.

Among the data in patent US20240174659A1, “COMPOUNDS AND METHODS FOR YAP/TEAD MODULATION AND INDICATIONS THEREFOR” (Opna Bio SA, priority 2021, published 2024) are IC50 values, retold here.

As to `C=CC(=O)N1CCc2cc(F)c(Oc3ccc(F)cc3)cc2C1` [P-0032, 1-(6-fluoro-7-(4-fluorophenoxy)-3,4-dihydroisoquinolin-2(1H)-yl)prop-2-en-1-one], the IC50 is 0.001 to 0.5 µM.
For `C=CC(=O)N1CCc2ccc(Nc3cccc(C(F)(F)F)c3)cc2C1` [P-0025, 1-(7-((3-(trifluoromethyl)phenyl)amino) -3,4-dihydroisoquinolin-2(1H)-yl)prop-2-en-1-one], the IC50 fell in the range of 0.001 to 0.5 µM.
Regarding `C=C(Cl)C(=O)N1CCc2ccc(Oc3ccc(C(F)(F)F)cc3)cc2C1` [P-0124, 2-chloro-1-(7-(4-(trifluoromethyl)phenoxy)-3,4-dihydroisoquinolin-2(1H)-yl)prop-2-en-1-one], the IC50 was in the range of 0.001 to 0.5 µM.
For the compound `C=CC(=O)N1CCc2ccc(OCc3cc(C)on3)cc2C1` [P-0081, 1-(7-((5-methylisoxazol-3-yl)methoxy)-3,4-dihydroisoquinolin-2(1H)-yl)prop-2-en-1-one], the IC50 is greater than 20 µM.
The figure for `C=CC(=O)N1CCc2ccc(C(F)c3ccc(C(F)(F)F)nc3)cc2C1` (centres unmarked) [P-0105, 1-(7-(fluoro(6-(trifluoromethyl)pyridin-3-yl)methyl)-3,4-dihydroisoquinolin-2(1H)-yl)prop-2-en-1-one] is 0.5 to 20 µM; for `C=CC(=O)N1CCc2ccc(Nc3cccc(Cl)c3)cc2C1` [P-0024, 1-(7-((3-chlorophenyl)amino)-3,4-dihydroisoquinolin-2(1H)-yl)prop-2-en-1-one] it is 0.001 to 0.5 µM; for `C=CC(=O)N1CCc2ccc(Cc3ccc(C(F)(F)F)cc3)cc2C1` [P-0072, 1-(7-(4-(trifluoromethyl)benzyl)-3,4-dihydroisoquinolin-2(1H)-yl)prop-2-en-1-one] it is 0.001 to 0.5 µM.
Regarding `C=CC(=O)N1CCc2ccc(OC3CCC(C(F)(F)F)CC3)cc2C1` (centres unmarked) [P-0071, 1-(7-((4-(trifluoromethyl)cyclohexyl)oxy)-3,4-dihydroisoquinolin-2(1H)-yl)prop-2-en-1-one], the IC50 is 0.001 to 0.5 µM.
`C=CC(=O)N1CCc2ccc(Oc3cccc(C#N)c3)cc2C1` [P-0092, 3-((2-acryloyl-1,2,3,4-tetrahydroisoquinolin-7-yl)oxy)benzonitrile]: the IC50 lay in the range of 0.001 to 0.5 µM.
Turning to `O=C(/C=C/CN1CCCC1)N1CCc2ccc(Oc3ccc(C(F)(F)F)cc3)cc2C1` [P-0118, (E)-4-(pyrrolidin-1-yl)-1-(7-(4-(trifluoromethyl)phenoxy)-3,4-dihydroisoquinolin-2(1H)-yl)but-2-en-1-one], the IC50 was 0.5 to 20 µM.
`C=CC(=O)N1CCc2ccc(OC3CCN(S(C)(=O)=O)CC3)cc2C1` [P-0028, 1-(7-((1-(methylsulfonyl)piperidin-4-yl)oxy)-3,4-dihydroisoquinolin-2(1H)-yl)prop-2-en-1-one]: the IC50 was in the range of 0.5 to 20 µM.
Take `C=CC(=O)N1CCc2ccc(NC3CCC(F)(F)CC3)cc2C1` [P-0029, 1-(7-((4,4-difluorocyclohexyl)amino)-3,4-dihydroisoquinolin-2(1H)-yl)prop-2-en-1-one]: the IC50 was 0.001 to 0.5 µM.
Consider `C=CC(=O)N1CCc2c(F)cc(Oc3ccc(C(F)(F)F)nc3)cc2C1` [P-0101, 1-(5-fluoro-7-((6-(trifluoromethyl)pyridin-3-yl)oxy)-3,4-dihydroisoquinolin-2(1H)-yl)prop-2-en-1-one], for which the IC50 lay within 0.001 to 0.5 µM.
The figure for `C=CC(=O)N1CCc2ccc(Oc3ccc(F)cc3F)cc2C1` [P-0008, 1-(7-(2,4-difluorophenoxy)-3,4-dihydroisoquinolin-2(1H)-yl)prop-2-en-1-one] is 0.001 to 0.5 µM; for `C=CC(=O)N1CCc2ccc(OC3CCOCC3)cc2C1` [P-0009, 1-(7-((tetrahydro-2H-pyran-4-yl)oxy)-3,4-dihydroisoquinolin-2(1H)-yl)prop-2-en-1-one] it is 0.001 to 0.5 µM; for `C=CC(=O)N1CCc2ccc(Nc3ccccc3)cc2C1` [P-0010, 1-(7-(phenylamino)-3,4-dihydroisoquinolin-2(1H)-yl)prop-2-en-1-one] it is 0.001 to 0.5 µM.
On to `C=CC(=O)N1CCc2ccc(OCC3CCC(F)(F)CC3)cc2C1` [P-0080, 1-(7-((4,4-difluorocyclohexyl)methoxy)-3,4-dihydroisoquinolin-2(1H)-yl)prop-2-en-1-one], for which the concentration for half-maximal inhibition (IC50) was 0.001 to 0.5 µM.
For the compound `C=CC(=O)N1CCc2ccc(OCc3ccc(C(F)(F)F)cc3)cc2C1` [P-0078, 1-(7-((4-(trifluoromethyl)benzyl)oxy)-3,4-dihydroisoquinolin-2(1H)-yl)prop-2-en-1-one], the IC50 is 0.5 to 20 µM.
In the case of `C=CC(=O)N1CCc2ccc(Oc3ccc(F)cc3)cc2C1` [P-0013, 1-(7-(4-fluorophenoxy)-3,4-dihydroisoquinolin-2(1H)-yl)prop-2-en-1-one], the IC50 was in the range of 0.001 to 0.5 µM.
Take `C=CC(=O)N1CCc2cc(F)c(Oc3cccc(F)c3)cc2C1` [P-0031, 1-(6-fluoro-7-(3-fluorophenoxy)-3,4-dihydroisoquinolin-2(1H)-yl)prop-2-en-1-one]: the IC50 was in the range of 0.001 to 0.5 µM.
The figure for `O=C(/C=C/CN1CCOCC1)N1CCc2ccc(Oc3cccc(F)c3)cc2C1` [P-0039, (E)-1-(7-(3-fluorophenoxy)-3,4-dihydroisoquinolin-2(1H)-yl)-4-morpholinobut-2-en-1-one] is greater than 20 µM; for `O=C(/C=C/CN1CCOCC1)N1CCc2ccc(Oc3ccc(C(F)(F)F)cc3)cc2C1` [P-0120, (E)-4-morpholino-1-(7-(4-(trifluoromethyl)phenoxy)-3,4-dihydroisoquinolin-2(1H)-yl)but-2-en-1-one] it is 0.5 to 20 µM; for `C=CC(=O)N1CCc2ccc(Oc3ccc(Cl)cc3)cc2C1` [P-0015, 1-(7-(4-chlorophenoxy)-3,4-dihydroisoquinolin-2(1H)-yl)prop-2-en-1-one] it is 0.001 to 0.5 µM.
For the compound `C=CC(=O)N1CCc2cc(F)c(Oc3ccccc3)cc2C1` [P-0030, 1-(6-fluoro-7-phenoxy-3,4-dihydroisoquinolin-2(1H)-yl)prop-2-en-1-one], the IC50 was in the range of 0.001 to 0.5 µM.
The figure for `C=CC(=O)N1CCc2ccc(OC3CCCCCC3)cc2C1` [P-0070, 1-(7-(cycloheptyloxy)-3,4-dihydroisoquinolin-2(1H)-yl)prop-2-en-1-one] is 0.001 to 0.5 µM; for `C=C(C)C(=O)N1CCc2ccc(Oc3ccc(C(F)(F)F)cc3)cc2C1` [P-0122, 2-methyl-1-(7-(4-(trifluoromethyl)phenoxy)-3,4-dihydroisoquinolin-2(1H)-yl)prop-2-en-1-one] it is 0.5 to 20 µM; for `C=CC(=O)N1CCc2ccc(Oc3ccc(F)c(C(F)(F)F)c3)cc2C1` [P-0044, 1-(7-(4-fluoro-3-(trifluoromethyl)phenoxy)-3,4-dihydroisoquinolin-2(1H)-yl)prop-2-en-1-one] it is 0.001 to 0.5 µM.
The figure for `C=CC(=O)N1CCc2ccc(Cc3cccc(F)c3)cc2C1` [P-0034, 1-(7-(3-fluorobenzyl)-3,4-dihydroisoquinolin-2(1H)-yl)prop-2-en-1-one] is 0.001 to 0.5 µM; for `C=CC(=O)N1CCc2ccc(NC3CCCC3)cc2C1` [P-0066, 1-(7-(cyclopentylamino)-3,4-dihydroisoquinolin-2(1H)-yl)prop-2-en-1-one] it is 0.001 to 0.5 µM; for `C=C(C)S(=O)(=O)N1CCc2ccc(Oc3ccc(C(F)(F)F)cc3)cc2C1` [P-0127, 2-(prop-1-en-2-ylsulfonyl)-7-(4-(trifluoromethyl)phenoxy)-1,2,3,4-tetrahydroisoquinoline] it is 0.001 to 0.5 µM.
Take `C=CC(=O)N1CCc2ccc(Nc3ccnc(C(F)(F)F)c3)cc2C1` [P-0011, 1-(7-((2-(trifluoromethyl)pyridin-4-yl)amino)-3,4-dihydroisoquinolin-2(1H)-yl)prop-2-en-1-one]: the IC50 was in the range of 0.5 to 20 µM.
As to `C=CC(=O)N1CCc2ccc(C(F)(F)c3ccc(C(F)(F)F)nc3)cc2C1` [P-0106, 1-(7-(difluoro(6-(trifluoromethyl)pyridin-3-yl)methyl)-3,4-dihydroisoquinolin-2(1H)-yl)prop-2-en-1-one], the IC50 is 0.001 to 0.5 µM.
For `C=CC(=O)N1CCc2cc(C)c(Oc3ccc(F)cc3)cc2C1` [P-0043, 1-(7-(4-fluorophenoxy)-6-methyl-3,4-dihydroisoquinolin-2(1H)-yl)prop-2-en-1-one], the IC50 fell in the range of 0.001 to 0.5 µM.
On to `C=CC(=O)N1CCc2ccc(Oc3ccc(F)c(C4CC4)c3)cc2C1` [P-0048, 1-(7-(3-cyclopropyl-4-fluorophenoxy)-3,4-dihydroisoquinolin-2(1H)-yl)prop-2-en-1-one], for which the IC50 lay in the range of 0.001 to 0.5 µM.
Take `C=CC(=O)N1CCc2ccc(Oc3cc(F)cc(F)c3)cc2C1` [P-0057, 1-(7-(3,5-difluorophenoxy)-3,4-dihydroisoquinolin-2(1H)-yl)prop-2-en-1-one]: the IC50 lay within 0.001 to 0.5 µM.
Regarding `C=CC(=O)N1CCc2ccc(OCc3ccccc3C(F)(F)F)cc2C1` [P-0088, 1-(7-((2-(trifluoromethyl)benzyl)oxy)-3,4-dihydroisoquinolin-2(1H)-yl)prop-2-en-1-one], the IC50 lay within 0.001 to 0.5 µM.
As for `C=CC(=O)N1CCc2ccc(OC3CCS(=O)(=O)CC3)cc2C1` [P-0084, 1-(7-((1,1-dioxidotetrahydro-2H-thiopyran-4-yl)oxy)-3,4-dihydroisoquinolin-2(1H)-yl)prop-2-en-1-one], the IC50 lay within 0.001 to 0.5 µM.
The figure for `C=CC(=O)N1Cc2cc(Oc3ccc(C(F)(F)F)cc3)ccc2C[C@H]1C(=O)OC` [P-0112, methyl (S)-2-acryloyl-7-(4-(trifluoromethyl)phenoxy)-1,2,3,4-tetrahydroisoquinoline-3-carboxylate] is 0.001 to 0.5 µM; for `C=CC(=O)N1CCc2ccc(OC3CCC4(CCCC4)CC3)cc2C1` [P-0064, 1-(7-(spiro[4.5]decan-8-yloxy)-3,4-dihydroisoquinolin-2(1H)-yl)prop-2-en-1-one] it is 0.5 to 20 µM; for `C=CC(=O)N1CCc2ccc(Nc3ccccc3F)cc2C1` [P-0022, 1-(7-((2-fluorophenyl)amino)-3,4-dihydroisoquinolin-2(1H)-yl)prop-2-en-1-one] it is 0.001 to 0.5 µM.
Consider `C=CC(=O)N1CCc2ccc(Oc3cccc(Cl)c3)cc2C1` [P-0014, 1-(7-(3-chlorophenoxy)-3,4-dihydroisoquinolin-2(1H)-yl)prop-2-en-1-one], for which the IC50 is 0.001 to 0.5 µM.
